According to patent US12358943B1, “Method of synthesizing testosterone-based thiazolidinone derivatives” (IMAM MOHAMMAD IBN SAUD ISLAMIC UNIVERSITY, priority 2025, dated 2025):

Experiments:
Format in all cases: cell-based
[1] = tested on: Candida albicans ATCC 10231; test: Disk diffusion agar antimicrobial activity, C. albicans; conditions: 25 mg/ml, 30° C. for 48 hours, mean values; for zone of inhibition at 25000 µg/mL: Candida albicans, ATCC10231, 48 h, read-out: Bacterial and fungal growth inhibition zone diameter (mm), C. albicans
Protocol: (§1) As used herein, “inhibition zone diameter” refers to a measurement that indicates how effective an antimicrobial is against a bacterium. The diameter of the zone of inhibition can be used to determine the level of sensitivity of the bacterium to the antimicrobial. In laboratory testing, such as the disk diffusion method (Kirby-Bauer test), a paper disk impregnated with the antimicrobial agent is placed on an agar plate inoculated with the microorganism. After incubation, the diameter of the clear zone (inhibition zone) around the disk is measured.
(§2) The reaction conditions and mechanisms are described in subsequent examples. The successful fabrication of the testosterone-based thiazolidinone derivatives was confirmed by different analytical techniques. The antimicrobial activity of newly prepared testosterone-based thiazolidinone derivatives was evaluated against various microorganisms, including Staphylococcus aureus ATCC 6538-P, Escherichia coli ATCC 25933, Candida albicans ATCC 10231, and Aspergillus niger NRRL-A326.
(§3) The antimicrobial activity of the synthesized testosterone-based thiazolidinone derivatives (compound (I), compound (II), and compound (III)) were assessed utilizing the disk diffusion agar methodology. Four representative microbial strains were selected for this study: Staphylococcus aureus ATCC 6538-P (Gram-positive), Escherichia coli ATCC 25933 (Gram-negative), Candida albicans ATCC 10231, and Aspergillus niger NRRL-A326. Nutrient agar plates were uniformly inoculated with 0.1 mL of a cell suspension at a density of […] to 10^6 cells/mL for both bacterial and yeast cultures. Following inoculation, samples were introduced onto the agar plates. The plates were subsequently incubated at refrigeration temperature (4° C.) for 2 to 4 hours to enhance the diffusion of the antimicrobial agents. Thereafter, the plates were incubated at 37° C. for 24 hours for bacterial growth and at 30° C. for 48 hours for yeast and fungal growth, maintaining an upright orientation to maximize the growth of the microorganisms. The antimicrobial activity of the testosterone-based thiazolidinone derivatives was quantified by measuring the diameter of the zone of inhibition, which was reported in millimeters (mm). The concentration of the tested testosterone-based thiazolidinone derivatives was 25 mg/ml. This experimental protocol was replicated multiple times, and the mean values of the observed readings were recorded.

[2] = tested on: Aspergillus niger NRRL-A326; test: Disk diffusion agar antimicrobial activity, A. niger; conditions: 30° C. for 48 hours, mean values; for Bacterial and fungal growth inhibition zone diameter (mm), A. niger: 25 mg/ml; for zone of inhibition at 25000 µg/mL: Aspergillus niger, NRRLA326, 25 mg/ml, read-out: Bacterial and fungal growth inhibition zone diameter (mm), A. niger
Protocol: as §1, §2, §3

[3] = tested on: Escherichia coli ATCC 25933; test: Disk diffusion agar antimicrobial activity, E. coli; conditions: 25 mg/ml, 37° C. for 24 hours, mean values; for zone of inhibition at 25000 µg/mL: Escherichia coli, ATCC25933, 24 h, read-out: Bacterial and fungal growth inhibition zone diameter (mm), E. coli
Protocol: as §1, §2, §3

[4] = tested on: Staphylococcus aureus ATCC 6538-P; test: Disk diffusion agar antimicrobial activity, S. aureus; conditions: 25 mg/ml, 37° C. for 24 hours, mean values; for zone of inhibition at 25000 µg/mL: Staphylococcus aureus, ATCC6538, 24 h, read-out: Bacterial and fungal growth inhibition zone diameter (mm), S. aureus
Protocol: as §1, §2, §3

[5] = listed as compound III where Ar is CH2C6H4
[6] = listed as compound III where Ar is C6H5
[7] = listed as compound III where Ar is 4-ClC6H4

SMILES | Bacterial and fungal growth inhibition zone diameter (mm), C. albicans [1] [mm] | Bacterial and fungal growth inhibition zone diameter (mm), C. albicans [1, 5] | Bacterial and fungal growth inhibition zone diameter (mm), A. niger [2] [mm] | Bacterial and fungal growth inhibition zone diameter (mm), A. niger [2, 5] | Bacterial and fungal growth inhibition zone diameter (mm), E. coli [3] [mm] | Bacterial and fungal growth inhibition zone diameter (mm), E. coli [3, 5] | Bacterial and fungal growth inhibition zone diameter (mm), S. aureus [4] [mm] | Bacterial and fungal growth inhibition zone diameter (mm), S. aureus [4, 5] | zone of inhibition at 25000 µg/mL [1] [mm] | zone of inhibition at 25000 µg/mL [2] [mm] | zone of inhibition at 25000 µg/mL [3] [mm] | zone of inhibition at 25000 µg/mL [4] [mm] | Bacterial and fungal growth inhibition zone diameter (mm), C. albicans [1, 6] | Bacterial and fungal growth inhibition zone diameter (mm), A. niger [2, 6] | Bacterial and fungal growth inhibition zone diameter (mm), E. coli [3, 6] | Bacterial and fungal growth inhibition zone diameter (mm), S. aureus [4, 6] | Bacterial and fungal growth inhibition zone diameter (mm), C. albicans [1, 7] | Bacterial and fungal growth inhibition zone diameter (mm), A. niger [2, 7] | Bacterial and fungal growth inhibition zone diameter (mm), E. coli [3, 7] | Bacterial and fungal growth inhibition zone diameter (mm), S. aureus [4, 7]
CC12CCC(=NN=C3NC(=O)C(CC(=O)NCc4ccccc4)S3)C=C1CCC1C2CCC2(C)C(O)CCC12 (centres unmarked) [Compound III Ar = CH2C6H4] | 21 | at least 21 mm | 44 | at least 44 mm | 17 | at least 17 mm | 19 | at least 19 mm | – | – | – | – | – | – | – | – | – | – | – | –
COC(=O)/C=C1/S/C(=N\N=C2\C=C3CC[C@H]4[C@@H]5CC[C@H](O)[C@@]5(C)CC[C@@H]4[C@@]3(C)CC2)NC1=O [Compound II] | 29 | – | – | – | 26 | – | 29 | – | ≥ 29 | 0 | ≥ 26 | ≥ 29 | – | – | – | – | – | – | – | –
C[C@]12CC[C@H]3[C@@H](CCC4=C/C(=N/NC(N)=S)CC[C@@]43C)[C@@H]1CC[C@@H]2O [Compound I] | – | – | – | – | – | – | – | – | 0 | 0 | 0 | 0 | – | – | – | – | – | – | – | –
CC12CCC(=NN=C3NC(=O)C(CC(=O)Nc4ccccc4)S3)C=C1CCC1C2CCC2(C)C(O)CCC12 (centres unmarked) [Compound III Ar = C6H5] | 36 | – | 37 | – | 32 | – | 35 | – | – | – | – | – | at least 36 mm | at least 37 mm | at least 32 mm | at least 35 mm | – | – | – | –
CC12CCC(=NN=C3NC(=O)C(CC(=O)Nc4ccc(Cl)cc4)S3)C=C1CCC1C2CCC2(C)C(O)CCC12 (centres unmarked) [Compound III Ar = 4-ClC6H4] | 41 | – | 43 | – | 39 | – | 38 | – | – | – | – | – | – | – | – | – | at least 41 mm | at least 43 mm | at least 39 mm | at least 38 mm
